Results on eleven compounds are retold here after patent publication US8198267B2, “Substituted oxazolidinones and their use” (Bayer Intellectual Property GmbH, priority 2007, dated 2012).

The structures appear in SMILES notation.

The target of one assay is T1, factor Xa (Homo sapiens, UniProt P00742).
T1 construct: tissue Octapharma; host or cells: citrate plasma
The experiment in a line: Factor Xa-inhibitory activity of the potential inhibitors in plasma samples. The class given is biochemical. To be noted: citrate plasma (Octapharma); factor X activated by rattlesnake toxin (RVV); ChromozymX chromogenic substrate, 405 nm. As to the method: a.4) Determination of the Factor Xa-Inhibitory Activity of the Potential Inhibitors in Plasma Samples
To determine the inhibition of factor Xa in plasma samples, the factor X present in plasma is activated by a protease from rattlesnake toxin. The factor Xa activity or its inhibition by potential inhibitors is then measured by addition of a chromogenic substrate.
Various concentrations of the substances to be tested are dissolved in dimethyl sulfoxide and diluted with an aqueous refludan solution (10 μg/ml). In clear 96-well plates having a flat bottom, 30 μl of citrate plasma (Octapharma) are mixed with 10 μl of the substance dilution. Then, either 20 μl of a solution of a rattlesnake toxin (Russel viper venom (RVV); RVV reagent: Pentapharm 121-06, final concentration 0.6 mU) in an aqueous calcium chloride solution buffer (final concentration of calcium chloride 0.05 M) or 20 μl of the aqueous calcium chloride solution (final concentration of calcium chloride 0.05 M) without RVV reagent (as reference for an unstimulated sample) are added. After addition of 20 μl of ChromozymX substrate (final concentration 1.6 mmol/l, Bachem L-1565, diluted in water) the samples are measured in a SpectraFluor Reader using a measurement filter of 405 nm each minute over a period of 20 minutes. The IC50 value is determined when about 70% of the maximum signal is reached (about 12 min).

For another assay, the target named is thrombin (Homo sapiens, UniProt P00734). Briefly: Thrombin-inhibitory activity of the potential inhibitors in plasma samples. The class given is biochemical. Particulars: citrate plasma (Octapharma); ecarin stimulation; fluorogenic thrombin substrate, 360/465 nm. How it is done: a.5) Determination of the Thrombin-Inhibitory Activity of the Potential Inhibitors in Plasma Samples
Various concentrations of the substances to be tested are dissolved in dimethyl sulfoxide and diluted with water.

T1 sequence (P00742 235-488 limits assumed): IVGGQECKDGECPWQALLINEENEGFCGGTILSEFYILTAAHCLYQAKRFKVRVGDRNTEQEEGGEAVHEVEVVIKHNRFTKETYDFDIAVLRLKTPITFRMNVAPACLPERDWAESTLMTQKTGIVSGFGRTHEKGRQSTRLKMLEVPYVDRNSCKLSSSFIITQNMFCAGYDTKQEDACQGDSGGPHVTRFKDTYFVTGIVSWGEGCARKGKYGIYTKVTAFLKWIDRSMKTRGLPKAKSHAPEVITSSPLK
T1 sequence (P00742 41-179 limits assumed): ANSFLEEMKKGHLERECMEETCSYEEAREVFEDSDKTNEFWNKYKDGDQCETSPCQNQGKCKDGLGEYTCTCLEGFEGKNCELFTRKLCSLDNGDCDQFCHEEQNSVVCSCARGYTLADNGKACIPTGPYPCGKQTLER

Take `CC(C)c1cc(N2C[C@H](CNC(=O)c3ccc(Cl)s3)OC2=O)ccc1N1CCCNC1=O` [Example 32, 5-Chloro-N-({(5S)-3-[3-isopropyl-4-(2-oxotetrahydropyrimidin-1(2H)-yl)phenyl]-2-oxo-1,3-oxazolidin-5-yl}methyl)thiophene-2-carboxamide]: the IC50 at factor Xa was 70 nM; against thrombin it was 151 nM.

Take `CC(=O)COc1cccn(-c2ccc(N3C[C@H](CNC(=O)c4ccc(Cl)s4)OC3=O)cc2C)c1=O` [Example 7, 5-Chloro-N-[((5S)-3-{3-methyl-4-[2-oxo-3-(2-oxopropoxy)pyridin-1(2H)-yl]phenyl}-2-oxo-1,3-oxazolidin-5-yl)methyl]thiophene-2-carboxamide]: the results for the IC50 against factor Xa and at thrombin were 206 nM and 277 nM, respectively.

In the case of `COCc1cc(N2C[C@H](CNC(=O)c3ccc(Cl)s3)OC2=O)ccc1N1CCCCC1=O` [Example 27, 5-Chloro-N-({(5S)-3-[3-(methoxymethyl)-4-(2-oxopiperidin-1-yl)phenyl]-2-oxo-1,3-oxazolidin-5-yl}methyl)thiophene-2-carboxamide], the IC50 against factor Xa turned out to be 39 nM; against thrombin it was 54 nM.

For the compound `CCCc1cc(N2C[C@H](CNC(=O)c3ccc(Cl)s3)OC2=O)ccc1-n1ccccc1=O` [Example 19], the IC50 was 361 nM at factor Xa and 8 nM against thrombin.

With `O=C(NC[C@H]1CN(c2ccc(N3CCOCCC3=O)c(C3CC3)c2)C(=O)O1)c1ccc(Cl)s1` [Example 30, 5-Chloro-N-({(5S)-3-[3-cyclopropyl-4-(5-oxo-1,4-oxazepan-4-yl)phenyl]-2-oxo-1,3-oxazolidin-5-yl}methyl)thiophene-2-carboxamide], the IC50 against factor Xa amounted to 25 nM; on thrombin it was 34 nM.

`O=C(NC[C@H]1CN(c2ccc(N3CCCN(CCO)C3=O)c(C(F)(F)F)c2)C(=O)O1)c1ccc(Cl)s1` [Example 38, 5-Chloro-N-{[(5S)-3-{4-[3-(2-hydroxyethyl)-2-oxotetrahydropyrimidin-1(2H)-yl]-3-(trifluoro-methyl)phenyl}-2-oxo-1,3-oxazolidin-5-yl]methyl}thiophene-2-carboxamide] came in with an IC50 against factor Xa of 252 nM.

`CCOc1cccn(-c2ccc(N3C[C@H](CNC(=O)c4ccc(Cl)s4)OC3=O)cc2C)c1=O` [Example 4, 5-Chloro-N-({(5S)-3-[4-(3-ethoxy-2-oxopyridin-1(2H)-yl)-3-methylphenyl]-2-oxo-1,3-oxazolidin-5-yl}methyl)thiophene-2-carboxamide]: the IC50 turned out to be 201 nM against factor Xa and 286 nM at thrombin.

Take `CCOc1nccn(-c2ccc(N3C[C@H](CNC(=O)c4ccc(Cl)s4)OC3=O)cc2C)c1=O` [Example 18, 5-Chloro-N-({(5S)-3-[4-(3-ethoxy-2-oxopyrazin-1(2H)-yl)-3-methylphenyl]-2-oxo-1,3-oxazolidin-5-yl}methyl)thiophene-2-carboxamide]: the IC50 against factor Xa was 319 nM; at thrombin, 502 nM.

For `Cc1cc(N2C[C@H](CNC(=O)c3ccc(Cl)s3)OC2=O)cc(C)c1-n1cccc(OCCO)c1=O` [Example 16, 5-Chloro-N-{[(5S)-3-{4-[3-(2-hydroxyethoxy)-2-oxopyridin-1(2H)-yl]-3,5-dimethylphenyl}-2-oxo-1,3-oxazolidin-5-yl]methyl}thiophene-2-carboxamide], the IC50 worked out at 213 nM on factor Xa and 14 nM against thrombin.

`COc1cc(N2C[C@H](CNC(=O)c3ccc(Cl)s3)OC2=O)ccc1N1CCCN(C)C1=O` [Example 35, 5-Chloro-N-({(5S)-3-[3-methoxy-4-(3-methyl-2-oxotetrahydropyrimidin-1(2H)-yl)phenyl]-2-oxo-1,3-oxazolidin-5-yl}methyl)thiophene-2-carboxamide]: the figures for the IC50 against factor Xa and on thrombin were 552 nM and 390 nM, respectively.

As to `Cc1cc(N2C[C@H](CNC(=O)c3ccc(Cl)s3)OC2=O)ccc1-n1cccc(OCC(C)(C)O)c1=O` [Example 9, 5-Chloro-N-[((5S)-3-{4-[3-(2-hydroxy-2-methylpropoxy)-2-oxopyridin-1(2H)-yl]-3-methylphenyl}-2-oxo-1,3-oxazolidin-5-yl)methyl]thiophene-2-carboxamide], the IC50 came out at 149 nM against factor Xa and 247 nM against thrombin.

As a reminder, the IC50 is the concentration that inhibits the measured activity by half. Higher therefore signals a need for much substance.
